{"source": "paper PMC13172357", "about": "(Nature Communications, 2026)", "key": {"[1]": {"molecular_target": "T1, USP7 (Homo sapiens, UniProt Q93009)", "T1 construct": "allowed the analysis of endogenous USP7 degradation in both cell lines; endogenous in cells; host or cells: Panc89 (PDAC) and Ma-Mel-47 (melanoma) cells", "T1 sequence (Q93009 whole entry)": "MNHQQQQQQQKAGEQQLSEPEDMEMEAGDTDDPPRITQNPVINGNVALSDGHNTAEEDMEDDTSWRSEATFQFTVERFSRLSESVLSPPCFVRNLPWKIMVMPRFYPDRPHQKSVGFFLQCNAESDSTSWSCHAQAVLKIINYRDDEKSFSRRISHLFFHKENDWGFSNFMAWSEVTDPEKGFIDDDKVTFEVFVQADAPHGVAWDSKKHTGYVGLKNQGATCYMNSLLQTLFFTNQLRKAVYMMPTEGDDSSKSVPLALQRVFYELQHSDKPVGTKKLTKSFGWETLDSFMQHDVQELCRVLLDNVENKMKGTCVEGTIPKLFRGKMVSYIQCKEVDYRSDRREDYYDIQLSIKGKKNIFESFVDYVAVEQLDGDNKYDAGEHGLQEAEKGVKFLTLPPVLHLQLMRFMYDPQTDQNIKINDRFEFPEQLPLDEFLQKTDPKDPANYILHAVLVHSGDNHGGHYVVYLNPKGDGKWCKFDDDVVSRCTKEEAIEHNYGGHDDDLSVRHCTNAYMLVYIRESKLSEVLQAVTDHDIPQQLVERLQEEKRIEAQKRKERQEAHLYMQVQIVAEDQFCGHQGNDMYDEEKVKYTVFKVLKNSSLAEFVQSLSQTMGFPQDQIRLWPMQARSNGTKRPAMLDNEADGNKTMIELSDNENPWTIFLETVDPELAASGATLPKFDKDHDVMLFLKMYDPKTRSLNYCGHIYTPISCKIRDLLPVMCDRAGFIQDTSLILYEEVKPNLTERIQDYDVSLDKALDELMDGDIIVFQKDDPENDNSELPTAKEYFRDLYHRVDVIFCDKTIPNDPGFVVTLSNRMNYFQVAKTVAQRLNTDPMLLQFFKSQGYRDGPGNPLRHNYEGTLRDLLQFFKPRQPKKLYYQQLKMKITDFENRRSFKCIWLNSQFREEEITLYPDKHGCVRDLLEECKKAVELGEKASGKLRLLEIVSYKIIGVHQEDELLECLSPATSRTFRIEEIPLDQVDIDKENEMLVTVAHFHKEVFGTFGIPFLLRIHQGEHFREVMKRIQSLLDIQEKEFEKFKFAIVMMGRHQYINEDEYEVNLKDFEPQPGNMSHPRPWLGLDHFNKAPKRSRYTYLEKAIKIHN", "assay": "USP7 degradation, Western blot densitometry, Ma-Mel-47 cells", "type": "cell-based", "details": "Ma-Mel-47, 5 µM, 24 h, Western blot", "procedure": "(§1) The melanoma cell line Ma-Mel-47 (established previously[57] from metastatic lesions from patient tumor tissues after written informed consent) and the PDAC cell line Panc89 (RRID: CVCL_4056, also referenced as T3M-4[58]) were cultured in a humidified incubator with 5% CO2 at 37 °C in RPMI1640 (Ma-Mel-47) / DMEM (Panc89) medium containing 10% (v/v) fetal calf serum (FCS) and penicillin/streptomycin (all Gibco, Thermo Fisher Scientific). Studies on human material were approved by the institutional review board. […] Testing for mycoplasma was performed by PCR monthly. To confirm cell identity, STR analysis was performed by the Microsynth Seqlab GmbH.\n(§2) To prepare samples for Western blot analysis, cells were seeded in 6-well dishes the day before treatment to adhere at 70–80% confluency.\n(§3) Cell pellets of all PDAC samples were lysed via adding a buffer containing 150 mM NaCl, 50 mM Tris/HCl (pH 7.4), 1% Triton X-100, 10 mM EDTA, 1 mM PMSF, 10 mM orthovanadate, and 1% aprotinin, incubating on ice for 1 h with vortexing every 15 minutes. Lysates were cleared of cell debris by centrifugation at 10,000 ×g at 4 °C for 10 min. […] Lysates were then clarified of cell debris by centrifugation at 13,000 ×g at 4 °C for 15 min. Thereafter, the total protein concentrations were either determined immediately or the protein extracts were stored at −20 or −80 °C. Pellets for samples shown in Fig. 6 and Supplementary Fig. 6 were lysed in 120 µL lysis buffer (50 mM Tris pH 8.0, 150 mM NaCl, 1% (v/v) IGEPAL, 0.5% (w/v) Na-deoxycholate, 0.1% (w/v) SDS) supplemented with 1x EDTA-free inhibitor protease cocktail (cOmplete, Roche) for 15 min at 4 °C. 0.2 µL Turbonuclease (Sigma Aldrich) and 5 mM MgCl2 were then added and lysates were incubated for 15 min at 4 °C. Cell debris was separated by centrifugation at 20,817 ×g for 15 min at 4 °C.\n(§4) Protein concentrations of cell lysates were measured using the Pierce BCA Protein Assay (Thermo Fisher Scientific) or the Quick Start Bradford Protein Assay (Bio-Rad), following the manufacturers’ protocols. Measurements were recorded on Tecan Spark or Tecan Infinite M200 plate readers. Lysates were kept on ice throughout the entire process.\n(§5) To separate proteins via SDS-PAGE, 10-20 µg of protein in lysis buffer was diluted with SDS-PAGE loading buffer (for most blots containing DTT or 2-mercaptoethanol) and denatured at 95 °C for 5 min. Protein separation was conducted at 95–110 V using the Mini-PROTEAN electrophoresis system (Bio-Rad). Proteins were then transferred to PVDF or nitrocellulose membranes using the Trans-Blot Turbo system (Bio-Rad) with the Trans-Blot Turbo RTA Kit for PVDF membranes. Prior to transfer, membranes were activated by soaking in 100% ethanol (for PVDF) or distilled water (for nitrocellulose) and proteins were transferred using the Mixed MW or the standard (1.0 A, 25 V, 30 min) protocol.\n(§6) After transfer, membranes were blocked in 5% (w/v) milk/TBS-T for 1 h and then washed three times for 10 min with TBS-T. They were incubated overnight at 4 °C with the primary antibody in 5% (w/v) milk/TBS-T or 1% (w/v) BSA/TBS-T. Membranes were then washed three times for 10 min with TBS-T and incubated with horseradish peroxidase (HRP)-conjugated secondary antibodies in a solution of 5% (w/v) BSA/TBS-T or 1% (w/v) milk/TBS-T for 1 h at room temperature. PBS-T was used for blots shown in Fig. 6 and Supplementary Fig. 6.\n(§7) Membranes were incubated with Clarity Western ECL substrate (Bio-Rad) for PDAC samples or Pierce ECL Western Blotting-Substrate (Thermo Fisher Scientific) for melanoma. Chemiluminescent signals were detected with a ChemiDoc Imaging System (Bio-Rad) for PDAC samples or with a ECL Chemostar Imager (Intas Science Imaging) for melanoma samples.\n(§8) Densitometric quantification of band intensities for Fig. 2c, d was performed using the ImageJ software."}, "[2]": {"molecular_target": "HiBiT-USP7 (Homo sapiens, UniProt Q93009)", "sequence (Q93009 whole entry, the tested form may be a part)": "as the sequence (Q93009 whole entry) above", "assay": "HiBiT USP7 degradation assay, MV4-11 cells", "type": "cell-based", "details": "MV4-11 HiBiT-USP7, 6 h and 24 h", "procedure": "HiBiT-USP7 construct was cloned by extraction of USP7 fragment from plasmid pQHA-USP7 WT puroR (Addgene #46753) using appropriate restriction sites. The USP7 fragment was then ligated into the pRRL-PGK-HiBiT entry vector to generate the plasmid.\nLentiviral infection was used to generate stable a MV4-11 HiBiT cell line. Lentivirus was produced using plasmids psPAX2, pMD2.G, and HiBiT-USP7 plasmid in HEK293 cells. MV4-11 cells were infected with filtered virus supernatant and selected after 48 h of infection for the generation of the stable MV4-11^HiBiT-USP7 cell line.\nThe assay was performed as described previously. Briefly, MV4-11^HiBiT-USP7 cells were seeded and treated with compounds for the indicated time. Nano-Glo HiBiT Lytic Detection System (Promega) was used for the assay and luminescence was measured on a Tecan Spark microplate reader (Tecan). DC50 values were calculated using the sigmoidal dose-response (four parameters) equation in GraphPad Prism and are given as the concentration where 50% of the total signal was remaining. Dmax values are given as the maximum degradation observed at any concentration."}, "[3]": {"molecular_target": "T1, USP7", "assay": "USP7 degradation, Western blot densitometry, Panc89 cells", "type": "cell-based", "details": "Panc89, 5 µM, 24 h, Western blot", "procedure": "as §1, §2, §3, §4, §5, §6, §7, §8"}, "[4]": {"molecular_target": "T2, NanoLuc-USP7 and HaloTag-VHL (Homo sapiens, UniProt P40337+Q93009)", "T2 construct": "expressed in transfected cells; host or cells: HEK293T, transient transfection (FuGENE HD)", "T2 sequence (Q93009 whole entry)": "as above", "T2 sequence (P40337 whole entry)": "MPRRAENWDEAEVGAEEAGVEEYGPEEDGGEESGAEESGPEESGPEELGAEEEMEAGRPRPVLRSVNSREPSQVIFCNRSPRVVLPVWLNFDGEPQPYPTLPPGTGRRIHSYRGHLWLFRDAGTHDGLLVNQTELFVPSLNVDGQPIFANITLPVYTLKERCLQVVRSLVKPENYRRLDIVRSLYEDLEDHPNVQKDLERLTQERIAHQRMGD", "T2 sequence (Q15370 whole entry partner)": "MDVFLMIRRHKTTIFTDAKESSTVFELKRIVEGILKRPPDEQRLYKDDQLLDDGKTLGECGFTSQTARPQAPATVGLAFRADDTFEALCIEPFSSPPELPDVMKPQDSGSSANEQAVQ", "T2 sequence (Q15369 whole entry partner)": "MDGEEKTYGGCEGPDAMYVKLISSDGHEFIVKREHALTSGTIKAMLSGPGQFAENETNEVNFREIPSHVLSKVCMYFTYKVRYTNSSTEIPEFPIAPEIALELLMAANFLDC", "assay": "Cellular ternary complex formation assay (NanoBRET), HEK293T cells", "type": "cell-based", "details": "for Ternary complex induction (in words): NanoBRET", "procedure": "The assay was performed as described step-by-step elsewhere. USP7 (NanoLuc-USP7) and VHL (HaloTag-VHL) were cloned in frame with N-terminal NanoLuc or HaloTag, respectively. For transfections, HEK293T cells were diluted in Opti-MEM medium without phenol red (Life Technologies) to 4×10^5 cells/mL and 9 µL were pipetted into each well of a white 384-well plate (Greiner 781207). 1 mL transfection mix was prepared containing 30 µL FuGENE HD (Promega, E2312) and 8 µL of each plasmid, incubated 20 min at RT and 1 µL were pipetted into each well leading to the total assay volume of 10 µL. […] 2 h prior to BRET measurements, the compounds were titrated to the cells using an Echo acoustic dispenser and the cells were incubated further at 37 °C and 5% CO2 to allow complex formation. NanoBRET Nano-Glo substrate and Extracellular NanoLuc Inhibitor (Promega, N2540) were then added as per the manufacturer’s protocol, and filtered luminescence was recorded on a PHERAstar FSX plate reader (BMG Labtech) equipped with a luminescence filter pair (donor: 450 nm BP filter; acceptor: 610 nm LP filter). Data were analyzed using GraphPad Prism 10 software."}, "[5]": {"molecular_target": "T1, USP7", "assay": "PROTAC rescue experiments, Western blot, Panc89 and Ma-Mel-47 cells", "type": "cell-based", "details": "2 h pretreatment (MLN4924 500 nM, CFZ 250 nM, NK249 10 µM), then 1 µM NK250 or NK266 for 20 h", "procedure": "Cells were treated with proteasome inhibitor Carfilzomib (CFZ, 250 nM), NEDDylation Inhibitor MLN4924 (500 nM) or VHL inhibitor NK249 (10 µM). After 2 h, PROTAC (1 µM) was added. Cells were analyzed after 20 h."}, "[6]": {"molecular_target": "T3, human USP7 full length protein (Homo sapiens, UniProt Q93009)", "T3 construct": "human USP7 full length protein", "T3 sequence (Q93009 whole entry)": "as the sequence (Q93009 whole entry) above", "assay": "USP7 inhibition assay (Ubiquitin-Rhodamine110Gly cleavage)", "type": "biochemical", "details": "Ub-RhoG cleavage, read-out: IC50 (half-maximal inhibition)", "procedure": "USP7 inhibitors in DMSO were diluted in UbR buffer (40 mM Tris-HCl pH 8, 150 mM NaCl, 1 mM TCEP, 0.1 mg/mL BSA, 0.01% Tween20) to a concentration of 80 μM (4x). This stock was then further diluted in an 11-times serial dilution in UbR buffer containing 4% DMSO (4x). To this was added the same volume of human USP7 full length protein[59] […] The assay was initiated upon addition of 10 μL per well of Ubiquitin-Rhodamine110Gly (Ub-RhoG) (100 nM in UbR buffer, 2x). […] Normalization was carried out using samples featuring either no inhibitor or no enzyme as respective controls. […] Slopes of fluorescence over time curves were determined with Microsoft Excel through linear regression using the first 15 min of each measurement."}, "[7]": {"system": "Ma-Mel-47 USP7 K.O. cells", "assay": "Medium color switch (images), Ma-Mel-47 USP7 K.O. cells", "type": "cell-based, human", "details": "Ma-Mel-47 USP7-KO, 72 h, 5 µM NK192, 10 µM FT671, 1 µM NK266"}, "[8]": {"system": "Panc89 cells", "assay": "Confluence measurement (cell growth), Panc89", "type": "cell-based, human", "details": "Panc89, 1-10 µM, 72 h, 25 mM or 5 mM D-glucose"}}}
{"smiles": "Cc1ncsc1-c1ccc(CNC(=O)[C@@H]2C[C@@H](O)CN2C(=O)[C@@H](NC(=O)C23C4C5C2C2C3C4C52C(=O)N2CCC(C3CCN(c4ccc(-n5ncc6c(=O)n(CC7(O)CCN(C(=O)C[C@@H](C)c8ccccc8)CC7)cnc65)cc4)CC3)CC2)C(C)(C)C)cc1", "note": "(stereo partly shown) [NK233]", "values": [{"measurement": "USP7 degradation (in words)", "setting": "[1]", "value": "robust degradation of USP7"}, {"measurement": "HiBiT-USP7 levels (in words)", "setting": "[2]", "value": "lower potency"}, {"measurement": "USP7 degradation (in words)", "setting": "[3]", "value": "effectively degraded USP7"}, {"measurement": "Ternary complex induction (in words)", "setting": "[4]", "value": "did not increase the BRET signal to the same level"}]}
{"smiles": "Cc1ncsc1-c1ccc([C@H](C)NC(=O)[C@@H]2C[C@@H](O)CN2C(=O)[C@@H](NC(=O)C2(F)CC2)C(C)(C)C)cc1", "note": "[NK249]", "values": [{"measurement": "Rescue of PROTAC-mediated USP7 degradation (in words)", "setting": "[5]", "value": "rescued PROTAC-mediated degradation of USP7"}]}
{"smiles": "CC(CC(=O)N1CCC(O)(Cn2cnc3c(cnn3-c3ccc(N4CCN(C(=O)CCOCCOCCOCCNC(=O)CCCCC5SCC6NC(=O)NC65)CC4)cc3)c2=O)CC1)c1ccccc1", "note": "(stereo not shown) [NK264]", "values": [{"measurement": "IC50", "setting": "[6]", "value": 15, "unit": "nM"}]}
{"smiles": "CCc1c(-c2ccc3[nH]ncc3c2)cnc(N)c1-c1ccc(O)cc1", "note": "[GNE-6640]", "values": [{"measurement": "IC50", "setting": "[6]", "value": 545, "unit": "nM"}]}
{"smiles": "O=C(C[C@@H](C(F)F)n1ccc(F)n1)N1CCC(O)(Cn2cnc3c(cnn3-c3ccc(F)cc3)c2=O)CC1", "note": "[FT671, reference compound]", "values": [{"measurement": "IC50", "setting": "[6]", "value": 13, "unit": "nM"}, {"measurement": "Change of media color (in words)", "setting": "[7]", "value": "the same change of media color"}, {"measurement": "Cell growth (in words)", "setting": "[8]", "value": "not affected"}]}
{"smiles": "NS(=O)(=O)OC[C@@H]1C[C@@H](n2ccc3c(N[C@H]4CCc5ccccc54)ncnc32)C[C@@H]1O", "note": "[MLN4924, Pevonedistat]", "values": [{"measurement": "Rescue of PROTAC-mediated USP7 degradation (in words)", "setting": "[5]", "value": "rescued PROTAC-mediated degradation of USP7"}]}
{"smiles": "CC(=O)c1cc([N+](=O)[O-])c(Sc2cccc(Cl)c2Cl)s1", "note": "[P5091]", "values": [{"measurement": "IC50", "setting": "[6]", "value": 2070, "unit": "nM"}]}
{"smiles": "CC(C)C[C@H](NC(=O)[C@H](CCc1ccccc1)NC(=O)CN1CCOCC1)C(=O)N[C@@H](Cc1ccccc1)C(=O)N[C@@H](CC(C)C)C(=O)[C@@]1(C)CO1", "note": "[carfilzomib, Carfilzomib]", "values": [{"measurement": "Rescue of PROTAC-mediated USP7 degradation (in words)", "setting": "[5]", "value": "rescued PROTAC-mediated degradation of USP7"}]}
{"smiles": "CN1CCN(CCC(=O)Nc2ccc3c(=O)n(CC4(O)CCN(C(=O)[C@@H](CCCNC(=O)c5ccc6c(Cl)c7c(nc6c5)CCCC7)Cc5ccccc5)CC4)cnc3c2)CC1", "note": "[XL177A]", "values": [{"measurement": "IC50", "setting": "[6]", "value": 91, "unit": "nM"}]}
{"smiles": "Cc1ncsc1-c1ccc(CNC(=O)[C@@H]2C[C@@H](O)CN2C(=O)[C@@H](NC(=O)C2(C#N)CC2)C(C)(C)C)cc1", "note": "[VH298, reference compound]", "values": [{"measurement": "Ternary complex induction (in words)", "setting": "[4]", "value": "neither the negative control NK245 nor the VHL ligand VH298 induced a ternary complex"}]}
{"smiles": "Cc1ncsc1-c1ccc(CNC(=O)C2CC(O)CN2C(=O)C(NC(=O)C2CCC(C(=O)N3CCN(c4ccc(-n5ncc6c(=O)n(CC7(O)CCN(C(=O)CC(C)c8ccccc8)CC7)cnc65)cc4)CC3)CC2)C(C)(C)C)cc1", "note": "(stereo not shown) [NK225]", "values": [{"measurement": "USP7 degradation (in words)", "setting": "[1]", "value": "robust degradation of USP7"}, {"measurement": "HiBiT-USP7 levels (in words)", "setting": "[2]", "value": "lower potency"}, {"measurement": "USP7 degradation (in words)", "setting": "[3]", "value": "effectively degraded USP7"}, {"measurement": "EC50", "setting": "[4]; compound 2 h prior BRET measurement, read-out: EC50 (half-maximal ternary complex formation concentration)", "value": 144, "unit": "nM"}]}
